Data: publication PMC2430599, “Solution Structure and Sugar-Binding Mechanism of Mouse Latrophilin-1 RBL: a 7TM Receptor-Attached Lectin-Like Domain” (Structure(London, England:1993), 2008)
Substitutions are numbered along the chain they refer to. Where “and” joins values, the source holds several entries; their conditions need not be identical. Equal values may be shown once.

Columns and labels:
[1] = biological target: T1, RBL domain of mouse Lat-1 (WT) (Mus musculus, UniProt Q80TR1); assay: NMR chemical shift perturbation titration of carbohydrates, wild-type RBL; format: binding; details: for Kd, WT / Kd: NMR titration, 30°C, 20 mM sodium phosphate pH 7.0, error from curve fitting, NBD = no binding detected (up to 100 mM compound)
T1 construct: Analytical ultracentrifugation experiments on RBL (residues 30–134) and larger constructs indicated a monomer in solution; α-factor signal propeptide (secretion leader) (N, cleaved yes); made in house; host or cells: Pichia pastoris strain X-33
T1 sequence (Q80TR1 30-134): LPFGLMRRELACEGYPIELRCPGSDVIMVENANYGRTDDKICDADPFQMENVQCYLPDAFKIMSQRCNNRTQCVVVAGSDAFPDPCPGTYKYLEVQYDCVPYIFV
Source text: (§1) (B) Ligand titrations induced chemical shift perturbations in the NMR spectra as indicated by arrows. (C) The extent of these perturbations was plotted against ligand concentration and fitted to extract equilibrium parameters using the equation Δδ=Δδsat(([P]+[L]+Kd)−([P]+[L]+Kd)^2−4[P][L])/2[P] , where [P] and [L] are protein and ligand concentrations, respectively, Δδ the shift perturbation measured for each titration point and Δδsat the perturbation at saturation. Multiple perturbed resonances can be fitted simultaneously to different Δδsat values for each resonance and a single Kd value. Equilibrium parameters (Ka) measured for different compounds under the same conditions are compared in a logarithmic plot with error bars derived from the fit (D).
We studied the direct interaction of RBL with carbohydrates by monitoring NMR spectral perturbations induced by binding (Figures 1B–1D).
(§2) All experiments were performed at 30°C with home-built spectrometers, with 11.7 T, 14.1 T, 17.6 T, or 22.3 T field strengths. NMR samples consisted of 1–2 mM protein in a 20 mM sodium phosphate buffer (pH 7.0, 2 mM EDTA, 0.1 mM DSS, 0.02% NaN3) in 5% or 100% D2O, unless otherwise noted.

RBL E42R = biological target: T2, RBL E42R (Mus musculus, UniProt Q80TR1, E42R); assay: NMR titration, RBL E42R mutant; details: NBD = no binding detected
T2 construct: Analytical ultracentrifugation experiments on RBL (residues 30–134) and larger constructs indicated a monomer in solution; α-factor signal propeptide (secretion leader) (N, cleaved yes); made in house; host or cells: Pichia pastoris strain X-33
T2 sequence (Q80TR1 30-134 E42R): T1 sequence (Q80TR1 30-134) with E13R
Source text: as §1
(§3) We created substitutions in these two residues of RBL and determined carbohydrate affinity by NMR titrations (Table 1).
as §2

SUEL = SUEL (Heliocidaris crassispina, UniProt P22031); assay: biochemical; format: binding, sea urchin
RBL K120R = biological target: T3, RBL K120R (Mus musculus, UniProt Q80TR1, K120R); assay: NMR titration, RBL K120R mutant; details: NBD = no binding detected
T3 construct: Analytical ultracentrifugation experiments on RBL (residues 30–134) and larger constructs indicated a monomer in solution; α-factor signal propeptide (secretion leader) (N, cleaved yes); made in house; host or cells: Pichia pastoris strain X-33
T3 sequence (Q80TR1 30-134 K120R): T1 sequence (Q80TR1 30-134) with K91R
Source text: as §1, §3, §2

RBL K120A = biological target: T4, RBL K120A (Mus musculus, UniProt Q80TR1, K120A); assay: NMR titration, RBL K120A mutant; details: NBD = no binding detected
T4 construct: Analytical ultracentrifugation experiments on RBL (residues 30–134) and larger constructs indicated a monomer in solution; α-factor signal propeptide (secretion leader) (N, cleaved yes); made in house; host or cells: Pichia pastoris strain X-33
T4 sequence (Q80TR1 30-134 K120A): T1 sequence (Q80TR1 30-134) with K91A
Source text: as §1, §3, §2

RBL E42A = biological target: T5, RBL E42A (Mus musculus, UniProt Q80TR1, E42A); assay: NMR titration, RBL E42A mutant; details: NBD = no binding detected
T5 construct: Analytical ultracentrifugation experiments on RBL (residues 30–134) and larger constructs indicated a monomer in solution; α-factor signal propeptide (secretion leader) (N, cleaved yes); made in house; host or cells: Pichia pastoris strain X-33
T5 sequence (Q80TR1 30-134 E42A): T1 sequence (Q80TR1 30-134) with E13A
Source text: as §1, §3, §2

[2] = biological target: T6, RBL domain of mouse Lat-1 (Mus musculus, UniProt Q80TR1); assay: Printed glycan array chip screen with AlexaFluor 488 labelled RBL (Consortium for Functional Glycomics); format: binding
T6 construct: Analytical ultracentrifugation experiments on RBL (residues 30–134) and larger constructs indicated a monomer in solution; α-factor signal propeptide (secretion leader) (N, cleaved yes); made in house; host or cells: Pichia pastoris strain X-33
T6 sequence (Q80TR1 30-134): T1 sequence (Q80TR1 30-134)
Procedure: RBL extensively dialyzed against PBS was fluorescently labeled with the AlexaFluor 488 protein labeling kit (Invitrogen). After labeling, free dye was removed by gel filtration chromatography, and the labeling efficiency was estimated as 30%. Approximately 0.1 mg of labeled protein was provided to the Consortium for Functional Glycomics (National Institute of General Medical Sciences/National Institutes of Health) for screening in a printed glycan array chip (version 3.0, 320 glycan targets).

SUEL, sequence (P22031 whole entry): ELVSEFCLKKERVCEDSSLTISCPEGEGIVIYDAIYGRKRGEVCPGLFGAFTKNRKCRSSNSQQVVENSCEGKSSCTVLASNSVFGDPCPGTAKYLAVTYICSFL

Compound | Kd, WT [1] | Kd [1] | further results
CC(=O)N[C@@H]1[C@@H](O)[C@H](O)[C@@H](CO)O[C@H]1O [N-acetyl glucosamine] | NBD | – | –
C[C@H]1OC(O)[C@H](O)[C@@H](O)[C@H]1O (stereo partly drawn) [D-fucose] | – | 61 ± 1.3 mM | –
C[C@@H]1OC(O)[C@H](O)[C@H](O)[C@H]1O (stereo partly drawn) [L-rhamnose] | – | 1.8 mM and 1.78 mM | Kd, E42R (RBL E42R): NBD; Kd (SUEL): 0.1 to 0.2 mM; affinity of SUEL relative to Lat-1 RBL (times tighter) (SUEL; SUEL Kd vs Lat-1 RBL Kd 1.8 mM, ref Hosono et al., 1999): 10; Kd, K120R (RBL K120R): NBD; Kd, K120A (RBL K120A): NBD; Kd, E42A (RBL E42A): NBD
O=C[C@H](O)[C@@H](O)[C@H](O)[C@H](O)C(=O)O [D-glucuronic acid] | NBD | – | –
OC[C@H]1O[C@H](OCC2O[C@@H](O)[C@H](O)[C@@H](O)[C@@H]2O)[C@H](O)[C@@H](O)[C@H]1O (stereo partly shown) [Melibiose] | – | 33.3 ± 0.5 mM | –
Heparin | NBD | – | –
OC[C@H]1OC(O)[C@@H](O)[C@@H](O)[C@@H]1O (stereo partly drawn) [D-mannose] | NBD | – | –
C[C@@H]1O[C@@H](O[C@H]2C[C@@H](O)[C@]3(CO)[C@H]4[C@H](O)C[C@]5(C)[C@@H](C6=CC(=O)OC6)CC[C@]5(O)[C@@H]4CC[C@]3(O)C2)[C@H](O)[C@H](O)[C@H]1O [Ouabain] | – | 2.21 ± 0.03 mM | –
O[C@@H]1[C@@H](O)[C@@H](O)CO[C@H]1O [L-arabinose] | – | 75 ± 1.3 mM | –
OC[C@H]1OC(O)[C@H](O)[C@@H](O)[C@H]1O (stereo partly drawn) [D-galactose] | – | 33.6 ± 0.4 mM | Kd, E42R (RBL E42R): NBD; Kd, K120R (RBL K120R): NBD; Kd, K120A (RBL K120A): NBD; Kd, E42A (RBL E42A): NBD
OC1OC[C@@H](O)[C@@H](O)[C@@H]1O (stereo partly drawn) [D-arabinose] | NBD | – | –
OC[C@H]1OC(O)[C@H](O)[C@@H](O)[C@@H]1O (stereo partly drawn) [D-glucose] | NBD | – | –
CC(=O)N[C@H]1[C@H]([C@H](O)[C@H](O)CO)OC(O)(C(=O)O)C[C@@H]1O (stereo partly shown) [N-acetyl neuraminic acid] | NBD | – | –
Galα1-3(Fucα1-2)Galβ1-3GlcNAcβ-Sp0 [glycan #95] | – | – | binding in NMR titration compared to galactose ([1]; NMR titration with glycan as ligand): did not show stronger or altered binding compared to galactose; binding on immobilized glycan array ([2]; fluorescently labeled RBL, glycan array version 3.0, 320 glycan targets, triplicate): any interaction; level of fluorescent signal relative to what is commonly found in this assay ([2]; glycan array version 3.0): approximately 1/20
CC(=O)N[C@@H]1[C@@H](O)[C@@H](O)[C@@H](CO)O[C@@H]1O [N-acetyl galactosamine] | NBD | – | –
C[C@H](O)[C@@H](O)[C@@H](O)[C@H](O)C=O [L-fucose] | NBD ^c | – | –
